The source of these data is patent US8309718B2, “4-pyrazolyl-N-arylpyrimidin-2-amines and 4-pyrazolyl-N-heteroarylpyrimidin-2-amines as janus kinase inhibitors” (Incyte Corporation, priority 2007, dated 2012).

A word on the IC50: it is the concentration that gives 50% inhibition.

The target in this assay is T1, human JAK2 (Homo sapiens, UniProt O60674).
T1 construct: JAK2 (a.a. 828-1132); His tag (N); made in house; host or cells: insect cells (baculovirus)
T1 sequence (O60674 828-1132): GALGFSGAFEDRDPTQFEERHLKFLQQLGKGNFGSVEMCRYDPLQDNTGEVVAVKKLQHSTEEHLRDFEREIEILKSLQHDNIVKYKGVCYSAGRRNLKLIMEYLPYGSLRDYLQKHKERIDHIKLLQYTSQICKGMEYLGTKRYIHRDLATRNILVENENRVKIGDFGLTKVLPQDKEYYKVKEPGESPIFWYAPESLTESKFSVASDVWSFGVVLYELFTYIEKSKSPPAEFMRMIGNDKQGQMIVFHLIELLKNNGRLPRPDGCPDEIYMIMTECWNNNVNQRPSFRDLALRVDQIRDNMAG
Put plainly: In vitro JAK kinase assay (HTRF, phosphorylation of biotinylated peptide). The following applies: catalytic domain a.a. 828-1132, 30 μM ATP, 500 nM peptide, room temperature 1 hr; read-out: JAK-2 IC50. Type of assay: biochemical. Here is the method:
Compounds herein were tested for inhibitory activity of JAK targets according to the following in vitro assay described in Park et al, Analytical Biochemistry 1999, 269, 94-104. The catalytic domains of human JAK1 (a.a. 837-1142), JAK2 (a.a. 828-1132) and JAK3 (a.a. 781-1124) with an N-terminal His tag were expressed using baculovirus in insect cells and purified. The catalytic activity of JAK1, JAK2 or JAK3 was assayed by measuring the phosphorylation of a biotinylated peptide. The phosphorylated peptide was detected by homogenous time resolved fluorescence (HTRF). IC50s of compounds were measured for each kinase in the reactions that contain the enzyme, ATP and 500 nM peptide in 50 mM Tris (pH 7.8) buffer with 100 mM NaCl, 5 mM DTT, and 0.1 mg/mL (0.01%) BSA. The ATP concentration in the reactions was 90 μM for JAK1, 30 μM for Jak2 and 3 μM for JAK3. Reactions were carried out at room temperature for 1 hr and then stopped with 20 μL 45 mM EDTA, 300 nM SA-APC, 6 nM Eu-Py20 in assay buffer (Perkin Elmer, Boston, Mass.). Binding to the Europium labeled antibody took place for 40 minutes and HTRF signal was measured on a Fusion plate reader (Perkin Elmer, Boston, Mass.). Certain of the above compounds were tested according to this assay.
On the technique in general: Time-resolved FRET reads energy transfer from a long-lived donor to a nearby acceptor.
For `COC[C@H]1CCCN1CC(=O)Nc1ccc(Nc2nccc(-c3cnn(C(CC#N)C4CCCC4)c3)n2)cc1` (mixture of isomers) [Example 209, N-(4-(4-(1-(2-cyano-1-cyclopentylethyl)-1H-pyrazol-4-yl)pyrimidin-2-ylamino)phenyl)-2-((R)-2-(methoxymethyl)pyrrolidin-1-yl)acetamide], the IC50 is below 100 nM.
With `COCC(C)NCC(=O)Nc1ccc(Nc2nccc(-c3cnn(C(CC#N)C4CCCC4)c3)n2)cc1` (mixture of isomers) [Example 211, N-(4-(4-(1-(2-cyano-1-cyclopentylethyl)-1H-pyrazol-4-yl)pyrimidin-2-ylamino)phenyl)-2-(1-methoxypropan-2-ylamino)acetamide], the IC50 was below 100 nM.
For `CC1(C)CCOC12CCN(C(=O)c1ccc(Nc3nccc(-c4cnn(C(CC#N)C5CCCC5)c4)n3)cc1)C2` (mixture of isomers) [Example 220, 3-cyclopentyl-3-(4-(2-(4-(4,4-dimethyl-1-oxa-7-azaspiro[4.4]nonane-7-carbonyl)phenylamino)pyrimidin-4-yl)-1H-pyrazol-1-yl)propanenitrile] the value was below 100 nM.
The value for `N#CCC(C1CCCC1)n1cc(-c2ccnc(Nc3ccc(C(=O)N4CC[C@H](C#N)C4)cc3)n2)cn1` (mixture of isomers) [Example 225, (3S)-1-(4-(4-(1-(2-cyano-1-cyclopentylethyl)-1H-pyrazol-4-yl)pyrimidin-2-ylamino)benzoyl)pyrrolidine-3-carbonitrile] was below 100 nM; that for `CO[C@H]1CCN(C(=O)c2ccc(Nc3nccc(-c4cnn(C(CC#N)C5CCCC5)c4)n3)cc2)C1` (mixture of isomers) [Example 226, 3-cyclopentyl-3-(4-(2-(4-((S)-3-methoxypyrrolidine-1-carbonyl)phenylamino)pyrimidin-4-yl)-1H-pyrazol-1-yl)propanenitrile] was below 100 nM.
Consider `N#CCC(C1CCCC1)n1cc(-c2ccnc(Nc3ccc(C(=O)N4CC[C@H](F)C4)cc3)n2)cn1` (mixture of isomers) [Example 229, 3-cyclopentyl-3-(4-(2-(4-((S)-3-fluoropyrrolidine-1-carbonyl)phenylamino)pyrimidin-4-yl)-1H-pyrazol-1-yl)propanenitrile], for which the IC50 is below 100 nM.
For `CN(C)C1CCN(C(=O)c2ccc(Nc3nccc(-c4cnn(C(CC#N)C5CCCC5)c4)n3)cc2)C1` (mixture of isomers) [Example 230, 3-cyclopentyl-3-(4-(2-(4-(3-(dimethylamino)pyrrolidine-1-carbonyl)phenylamino)pyrimidin-4-yl)-1H-pyrazol-1-yl)propanenitrile] the value was below 100 nM; for `N#CCC(C1CCCC1)n1cc(-c2ccnc(Nc3ccc(C(=O)NC4CCN(c5ccccn5)C4)cc3)n2)cn1` (mixture of isomers) [Example 232, 4-(4-(1-(2-cyano-1-cyclopentylethyl)-1H-pyrazol-4-yl)pyrimidin-2-ylamino)-N-(1-(pyridin-2-yl)pyrrolidin-3-yl)benzamide], below 100 nM; for `N#CCC(C1CCCC1)n1cc(-c2ccnc(Nc3ccc(C(=O)N4CCC(Oc5ccccn5)C4)cc3)n2)cn1` (mixture of isomers) [Example 233, 3-cyclopentyl-3-(4-(2-(4-(3-(pyridin-2-yloxy)pyrrolidine-1-carbonyl)phenylamino)pyrimidin-4-yl)-1H-pyrazol-1-yl)propanenitrile], below 100 nM.
The value for `CC[C@H](NC(=O)c1ccc(Nc2nccc(-c3cnn(C(CC#N)C4CCCC4)c3)n2)cc1)C(=O)N(C)C` (mixture of isomers) [Example 235, 4-(4-(1-(2-cyano-1-cyclopentylethyl)-1H-pyrazol-4-yl)pyrimidin-2-ylamino)-N—((S)-1-(dimethylamino)-1-oxobutan-2-yl)benzamide] was below 100 nM.
As for `N#CCC(C1CCCC1)n1cc(-c2ccnc(Nc3cccc(NC(=O)CN4CC[C@@H](O)C4)c3)n2)cn1` (mixture of isomers) [Example 237, N-(3-(4-(1-(2-cyano-1-cyclopentylethyl)-1H-pyrazol-4-yl)pyrimidin-2-ylamino)phenyl)-2-((R)-3-hydroxypyrrolidin-1-yl)acetamide], the IC50 was below 100 nM.
Consider `N#CCC(C1CC1)n1cc(-c2ccnc(Nc3ccc(C(=O)N4CC[C@@H](C#N)C4)cc3)n2)cn1` (mixture of isomers) [Example 264, (3R)-1-(4-(4-(1-(2-cyano-1-cyclopropylethyl)-1H-pyrazol-4-yl)pyrimidin-2-ylamino)benzoyl)pyrrolidine-3-carbonitrile], for which the IC50 was below 100 nM.
For `CO[C@H]1CCN(C(=O)c2ccc(Nc3nccc(-c4cnn(C(CC#N)C5CC5)c4)n3)cc2)C1` (mixture of isomers) [Example 265, 3-cyclopropyl-3-(4-(2-(4-((S)-3-methoxypyrrolidine-1-carbonyl)phenylamino)pyrimidin-4-yl)-1H-pyrazol-1-yl)propanenitrile] the value was below 100 nM.
The value for `N#CCC(C1CC1)n1cc(-c2ccnc(Nc3ccc(C(=O)N4CC[C@@H](O)C4)cc3)n2)cn1` (mixture of isomers) [Example 266, 3-cyclopropyl-3-(4-(2-(4-((R)-3-hydroxypyrrolidine-1-carbonyl)phenylamino)pyrimidin-4-yl)-1H-pyrazol-1-yl)propanenitrile] was below 100 nM.
Regarding `CC(=O)N[C@@H]1CCN(C(=O)c2ccc(Nc3nccc(-c4cnn(C(CC#N)C5CC5)c4)n3)cc2)C1` (mixture of isomers) [Example 268, N-((3R)-1-(4-(4-(1-(2-cyano-1-cyclopropylethyl)-1H-pyrazol-4-yl)pyrimidin-2-ylamino)benzoyl)pyrrolidin-3-yl)acetamide], the IC50 is below 100 nM.
For `CN(C)C1CCN(C(=O)c2ccc(Nc3nccc(-c4cnn(C(CC#N)C5CC5)c4)n3)cc2)C1` (mixture of isomers) [Example 270, 3-cyclopropyl-3-(4-(2-(4-(3-(dimethylamino)pyrrolidine-1-carbonyl)phenylamino)pyrimidin-4-yl)-1H-pyrazol-1-yl)propanenitrile] the value was below 100 nM.
On to `N#CCC(C1CC1)n1cc(-c2ccnc(Nc3ccc(C(=O)N4CC[C@H](F)C4)cc3)n2)cn1` (mixture of isomers) [Example 271, 3-cyclopropyl-3-(4-(2-(4-((S)-3-fluoropyrrolidine-1-carbonyl)phenylamino)pyrimidin-4-yl)-1H-pyrazol-1-yl)propanenitrile], for which the IC50 is below 100 nM.
The value for `N#CCC(C1CCOCC1)n1cc(-c2ccnc(Nc3ccc(C(=O)N4CC[C@@H](O)C4)cc3)n2)cn1` (mixture of isomers) [Example 315, 3-(4-{2-[(4-{[(3R)-3-hydroxypyrrolidin-1-yl]carbonyl}phenyl)amino]pyrimidin-4-yl}-1H-pyrazol-1-yl)-3-(tetrahydro-2H-pyran-4-yl)propanenitrile] was below 100 nM.
As for `CO[C@H]1CCN(C(=O)c2ccc(Nc3nccc(-c4cnn(C(CC#N)C5CCOCC5)c4)n3)cc2)C1` (mixture of isomers) [Example 316, 3-(4-{2-[(4-{[(3S)-3-methoxypyrrolidin-1-yl]carbonyl}phenyl)amino]pyrimidin-4-yl}-1H-pyrazol-1-yl)-3-(tetrahydro-2H-pyran-4-yl)propanenitrile], the IC50 is below 100 nM.
For `N#CCC(C1CCOCC1)n1cc(-c2ccnc(Nc3ccc(C(=O)N4CC[C@H](C#N)C4)cc3)n2)cn1` (mixture of isomers) [Example 317, (3S)-1-{4-[(4-{1-[2-cyano-1-(tetrahydro-2H-pyran-4-yl)ethyl]-1H-pyrazol-4-yl}pyrimidin-2-yl)amino]benzoyl}pyrrolidine-3-carbonitrile] the value was below 100 nM; for `COc1cnc(Nc2cccc(C(=O)N3CC[C@@H](O)C3)c2)nc1-c1cnn(C(CC#N)C2CC2)c1` (mixture of isomers) [Example 325, 3-cyclopropyl-3-(4-{2-[(3-{[(3R)-3-hydroxypyrrolidin-1-yl]carbonyl}phenyl)amino]-5-methoxypyrimidin-4-yl}-1H-pyrazol-1-yl)propanenitrile], below 100 nM.
As for `COc1cnc(Nc2cccc(C(=O)N3CC[C@H](OC)C3)c2)nc1-c1cnn(C(CC#N)C2CC2)c1` (mixture of isomers) [Example 326, 3-cyclopropyl-3-(4-{5-methoxy-2-[(3-{[(3S)-3-methoxypyrrolidin-1-yl]carbonyl}phenyl)amino]pyrimidin-4-yl}-1H-pyrazol-1-yl)propanenitrile], the concentration for half-maximal inhibition (IC50) is below 100 nM.
The value for `COc1cnc(Nc2cccc(C(=O)N3CC[C@H](C#N)C3)c2)nc1-c1cnn(C(CC#N)C2CC2)c1` (mixture of isomers) [Example 327, (3S)-1-[3-({4-[1-(2-cyano-1-cyclopropylethyl)-1H-pyrazol-4-yl]-5-methoxypyrimidin-2-yl}amino)benzoyl]pyrrolidine-3-carbonitrile] was below 100 nM; that for `N#CCC(CC1CCN(C(=O)c2ccc(F)cc2F)CC1)n1cc(-c2ccnc(Nc3ccc(-n4ccnc4)cc3)n2)cn1` (racemic) [Example 1, 3-(4-(2-(4-(1H-imidazol-1-yl)phenylamino)pyrimidin-4-yl)-1H-pyrazol-1-yl)-4-(1-(2,4-difluorobenzoyl)piperidin-4-yl)butanenitrile] was below 100 nM.
